Results on three molecules are retold here after patent publication US20180021288A1, “Neuroprotection in Demyelinating Diseases” (Biogen MA Inc., priority 2010, published 2018).

Data set [1] has as its system MOG-EAE. Briefly: Efficacy of DMF in chronic MOG-EAE (Example 1). The format is in vivo, mouse. The text has this:
See also, Schilling et al., “Fumaric Acid Esters Are Effective in Chronic Experimental Autoimmune Encephalomyelitis and Supress Macrophage Infiltration,” Clinical and Experimental Immunology, Vol. 145, No. 1, pp. 101-107 (2006).

The test system of data set [2] is MOG-EAE. The experiment in a line: DMF/GA co-therapy during chronic MOG-EAE (Example 3). The format is in vivo, mice. The following applies: for mean clinical EAE score during the chronic phase / onset of EAE symptoms: FIG. 4; for infiltration by T cells / number of infiltrating macrophages: chronic MOG-EAE; for infiltration by T cells: FIG. 7; for number of infiltrating macrophages: FIG. 8; for axonal loss and destruction: chronic phase, FIG. 9. As for the experimental part:
The treatment groups were as follows: 1) Mice immunized with 200 μg MOG/CFA (complete Freund's adjuvant)+200 ng PTX (pertussis toxin)+vehicle (methocel). 2) Mice immunized with 200 μg MOG/CFA and 50 μg GA+vehicle. […] Long term experiment: additional boost on day 28 p.i.

Data set [3] relates to MOG-EAE. The experiment in a line: DMF/GA co-therapy during short term (acute) course of MOG-EAE (Examples 3 and 8). The format is in vivo, mice. Particulars: for macrophage/microglia in EAE lesions: day 26 p.i., FIG. 13; for Incidence: pooled data from three experiments. As for the experimental part:
The treatment groups were as follows:
1) Mice immunized with 200 μg MOG/CFA (complete Freund's adjuvant)+200 ng PTX (pertussis toxin)+vehicle (methocel).
2) Mice immunized with 200 μg MOG/CFA and 50 μg GA+vehicle.
In the acute disease phase (day 26 or day 18 p.i., respectively), parameters of inflammation as well as CNS tissue integrity were analyzed. To this end, 12 week wild-type or C57BL/6 mice were actively immunized with […] of MOG peptide 35-55 and pertussis toxin. On day 18 or 26 p.i., histochemistry was performed to identify T cells (CD3 immunohistochemistry), macrophages/microglia (Mac-3), demyelination (Luxol Fast Blue staining), and axonal loss (Bielschowsky silver impregnation). Histological changes were quantified by a blinded observer counting six visual fields on spinal cord cross sections comprising cervical, thoracic and lumbar spinal cord. Statistical evaluations were performed by Kruskal-Wallis test or t-test. ** p<0.01; *** p<0.001.

In data set [4] the test system is MOG-EAE. The experiment in a line: DMF/IFN-beta co-therapy in MOG-EAE (Examples 4 and 8). The class given is in vivo, mice. Particulars: DMF 15 mg/kg p.o.; for Incidence: FIG. 11, IFN-beta 10,000 U s.c. e.o.d; for mean clinical EAE score / clinical disease course: short-term course, IFN-beta 10,000 U s.c., FIG. 11, FIG. 15.
Assay in data set [5]: not given
The source holds these as a separate data set.

In data set [6] the test system is MOG-EAE. The following applies: 100 or 500 mcg glatiramer acetate co-injected with MOG antigen; FIG. 3. The text has this:
In this experiment mice were co-injected with glatiramer acetate and the MOG antigen. Specifically, a control group received MOG alone, while two experimental groups received doses of 100 or 500 mcg glatiramer acetate.

In data set [7] the test system is MOG-EAE. Particulars: in vivo; cited from earlier work.
[8] abbreviates: FIG. 4, single experiment, GA 50 μg, DMF 15 mg/kgBW.
The mark [9] stands for this setting: FIG. 5, pooled data from two experiments (n=12 per group).
The mark [10] stands for this setting: IFN-beta-1a study, healthy volunteers, DMF 240 mg tid.
[11] abbreviates: GA study, healthy volunteers, DMF 240 mg tid.

Where a name gives a salt, the structure may show the parent alone. Read-outs that look alike come from different tables or passages of the source.

Turning to `COC(=O)/C=C/C(=O)OC` [DMF, Dimethyl fumarate], in the data set with MOG-EAE [1] (DMF 15 mg/kg twice daily via oral gavage, FIG. 1), the mean clinical score result was “reduced”. Also, in the data set with MOG-EAE [1] (mouse, in vivo), the T-cell infiltration result is “without suppressing”, the “efficacy in chronic MOG-EAE” value is listed as “effective” and the macrophage infiltration result is on record as “suppress”. Moreover, in the data set with MOG-EAE [1] (spinal cord tissue, FIG. 2B), the demyelination result is reported as “reduced”. In addition, the Incidence in the data set on MOG-EAE [2] (setting [8]) is recorded as 6/6. In addition, in the data set with MOG-EAE [2] (GA 50 μg, DMF 15 mg/kgBW), the “mean clinical EAE score during the chronic phase” value is reported as “little if any effect” and the “onset of EAE symptoms” value was “delayed”. Besides, the Incidence in the data set with MOG-EAE [2] (setting [9]) was 9/12. For the same molecule, in the data set with MOG-EAE [2], the “infiltration by T cells” value is given as “neither GA nor DMF reduces”; the “number of infiltrating macrophages” value is recorded as “neither GA nor DMF alone does so”; the “axonal loss and destruction” value was “reduce axonal loss and destruction”. For the same molecule, the “macrophage/microglia in EAE lesions” value with MOG-EAE [3] is reported as “reduction of macrophage/microglia”. Further, the “macrophage/microglia in EAE lesions” value in the data set with MOG-EAE [3] (listed as DMF alone) is on record as “efficiently reduces”. Moreover, in the data set with MOG-EAE [3] (short term course), the Incidence is recorded as 11/18. Also, the “mean clinical EAE score / clinical disease course” value in the data set on MOG-EAE [3] (short term course, FIG. 10A and 10B) is “greater than that of GA”. In the data set on MOG-EAE [4], the Incidence is on record as 6/6 and the “mean clinical EAE score / clinical disease course” value is recorded as “exacerbated the EAE compared to the methocel controls”. Under “IFN-beta-1a study”, the “most common adverse events” value was “flushing” and the new safety signals result is “no new safety signals”. Moreover, under setting [10], the “Any AE” value was determined as 71%, the Diarrhea is reported as 0%, the Flushing was determined as 50% and the Headache turned out to be 13%. Under setting [10], this molecule showed a Nausea of 4%, a Paresthesia of 21% and a Pruritus of 4%. This molecule registered an Influenza-like illness (human, in vivo) of 0%. Further, in data set [5] (GA study), the “most common adverse events” value is given as “flushing” and the new safety signals result is on record as “no new safety signals”. Moreover, in data set [5] (setting [11]), the “Any AE” value amounted to 84%, the Diarrhea is listed as 8%, the Flushing was 76% and the Headache was determined as 12%. In data set [5] (setting [11]), this molecule gave a Nausea of 8%, a Paresthesia of 32% and a Pruritus of 28%. For the same molecule, the “subjects discontinued due to adverse event” value in data set [5] (GA study, mild erythematous facial nodule (DMF alone), mild nausea (DMF+GA)) is “one”. The same molecule yielded an Influenza-like illness in data set [5] (human, in vivo) of 0%.
Consider “L-glutamic acid polymer with L-alanine, L-lysine and L-tyrosine, acetate (salt) [GA]”, for which the mean clinical score entry in the data set on MOG-EAE [6] is reported as “reduced the mean clinical score of the 100 or 500 mcg groups in a dose-dependent manner”. In the data set on MOG-EAE [2] (setting [8]), the Incidence is reported as 6/6. In addition, in the data set on MOG-EAE [2] (GA 50 μg, DMF 15 mg/kgBW), the “mean clinical EAE score during the chronic phase” value is listed as “intermediate effect” and the “onset of EAE symptoms” value was “delayed”. The Incidence with MOG-EAE [2] (setting [9]) is recorded as 11/12. In addition, in the data set with MOG-EAE [2], the “infiltration by T cells” value is “neither GA nor DMF reduces”; the “number of infiltrating macrophages” value is “neither GA nor DMF alone does so”; the “axonal loss and destruction” value is “reduce axonal loss and destruction”. For the same molecule, the “infiltrates (inflammatory index, HE staining of spinal cords)” value with MOG-EAE [2] (chronic disease phase, FIG. 6) is on record as “reduces infiltrates”. Moreover, in the data set with MOG-EAE [3] (short term course), the Incidence is reported as 13/18. Moreover, the “prevention of clinical and histological signs of EAE in combination with atorvastatin” value in the data set on MOG-EAE [7] is listed as “synergize with atorvastatin”.

B1: IFN-beta: murine interferon beta, 10,000 U s.c. (protein, UniProt P01575 22-182, looked up)
Interferon beta: INYKQLQLQERTNIRKCQELLEQLNGKINLTYRADFKIPMEMTEKMQKSYTAFAIQEMLQNVFLVFRNNFSSTGWNETIVVRLLDELHQQTVFLKTVLEEKQEERLTWEMSSTALHLKSYYWRVQRYLKLMKYNSYAWMVVRAEIFRNFLIIRRLTRNFQN
In the case of B1, in the data set with MOG-EAE [4], the Incidence was 5/6 and the “mean clinical EAE score / clinical disease course” value was “exacerbated the EAE compared to the methocel controls”.
